Assays:
[1] = test system: PBMC; test: Antiproliferative activity against human PBMC after 48 hrs by MTT assay; type: cell-based
[2] = test system: MCF7; test: Antiproliferative activity against human MCF7 cells after 48 hrs by MTT assay; type: functional, cell-based; settings: MCF7, 48 h
[3] = test system: HeLa; test: Antiproliferative activity against human HeLa cells after 48 hrs by MTT assay; type: functional, cell-based
[4] = test system: Hep 3B2; test: Antiproliferative activity against human Hep3B cells after 48 hrs by MTT assay; type: functional, cell-based
[5] = test system: NIH3T3; test: Antiproliferative activity against mouse NIH/3T3 cells after 72 hrs by real-time cell analysis; type: cell-based; settings: NIH3T3, 72 h

Compound	IC50 [1] [µM]	IC50 [2] [µM]	IC50 [3] [µM]	IC50 [4] [µM]	IC50 [5] [µM]
Cc1nc2ccccc2n1CC(=O)NN	23	24.2	5.34	40.5	
COc1ccc2[nH]c(SCC(=O)Nc3ccc(-c4csc(-c5ccccc5)n4)cc3)nc2c1					74.6

From ChEMBL document CHEMBL4007387, “Therapeutic evolution of benzimidazole derivatives in the last quinquennial period” (Eur J Med Chem, 2017)
